Reference: patent publication US20250115581A1, “SUBSTITUTED PIPERIDINES AS CK1A DEGRADERS” (Monte Rosa Therapeutics, Inc., priority 2022, published 2025)

What was measured:
[1] = molecular target: T1, CK1α (Homo sapiens, UniProt P48729+Q96SW2); assay: Western blot of CK1α levels in HEK293 cell line; format: cell-based; details: cereblon present, 0.1, 1, 10 μM, 24 hours
T1 construct: HEK293 clonal lines with CRISPR KI HiBiT tag on CSNK1A1; host or cells: HEK293 clonal line, CRISPR knock-in HiBiT at the CSNK1A1 locus, stably expressing LgBiT
Experimental: (§1) FIG. 1 depicts effects of compound 101 on CK1α levels in an HEK293 cell line in comparison to effects of compound 101 on CK1α levels in a cereblon (CRBN) knock-out HEK293 cell line.
(§2) HEK293 cell line is purchased from ATCC (CRL-1573). HEK293 CRBN knock out (k/o) cell line (B2) is generated internally using CRISPR/Cas9 method and clonally expanded. Cells are plated at 2×10^5 cells per well in 6-well tissue culture plates (VWR) in 2 ml of DMEM media (Gibco) containing 10% FBS (Gibco), and incubated for 16 hours at 37° C., 5% CO2. Compounds are added to final concentration of 0.1 μM, 1 μM, 10 μM (DMSO concentration is kept constant at 0.1%), following incubation at 37° C., 5% CO2 for additional 24 hours. Cell lysis is performed using RIPA buffer (Pierce) containing Halt™ Protease Inhibitor Cocktail (ThermoFisher Scientific). Lysates are boiled at 95° C. for 10 minutes and 12 μg of protein lysate per sample is resolved by SDS-PAGE using 12% gels (BioRad) and transferred to nitrocellulose membrane (BioRad). Membranes are blocked using LI-COR blocking buffer (LI-COR) at room temperature for 1 hour, followed by overnight incubation with rabbit anti-CK1α (Abcam ab206652), rabbit anti-CRBN (Sigma HPA045910) and mouse anti-α-tubulin (Sigma T9026) antibodies at 4° C. Secondary antibodies (LI-COR) are added for a hour at room temperature, followed by imaging with LI-COR imaging system Odyssey® CLx.

[2] = molecular target: T1, CK1α; assay: Western blot of CK1α levels in cereblon (CRBN) knock-out HEK293 cell line; format: cell-based; details: 0.1, 1, 10 μM, 24 hours
Experimental: as §1, §2

[3] = Mouse oral PK at 10 mg/kg; format: in vivo, Male BALB/c mice; details: male, BALB/c, plasma
Experimental: Male BALB/c mice were fasted overnight and administered a discrete, oral (PO) dose of Compound 107 or Compound 125 at 10 mg/kg.
Blood samples were collected serially from three animals/time-point following PO administration of the test compounds to the mice and placed in tubes containing K2EDTA. The blood samples were centrifuged, and the aliquots of the resulting plasma stored frozen at −60 to −90° C.
The plasma samples were analyzed by LC-MS/MS to determine concentrations of the test compounds. The in-life portion of the study and the bioanalysis of plasma samples was conducted at Wuxi (China).
The pharmacokinetic parameters for the tested compounds were calculated by non-compartmental analysis using Phoenix WinNonlin software.

T1 sequence (P48729 whole entry): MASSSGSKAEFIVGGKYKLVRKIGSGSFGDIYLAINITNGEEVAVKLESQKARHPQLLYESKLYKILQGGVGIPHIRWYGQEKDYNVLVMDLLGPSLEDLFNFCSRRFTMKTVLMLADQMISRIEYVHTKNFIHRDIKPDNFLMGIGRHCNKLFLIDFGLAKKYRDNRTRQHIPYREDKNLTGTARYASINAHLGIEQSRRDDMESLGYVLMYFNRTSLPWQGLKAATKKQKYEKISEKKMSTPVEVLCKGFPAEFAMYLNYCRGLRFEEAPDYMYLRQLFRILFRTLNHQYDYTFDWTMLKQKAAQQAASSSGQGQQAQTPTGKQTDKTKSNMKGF
T1 sequence (Q96SW2 whole entry): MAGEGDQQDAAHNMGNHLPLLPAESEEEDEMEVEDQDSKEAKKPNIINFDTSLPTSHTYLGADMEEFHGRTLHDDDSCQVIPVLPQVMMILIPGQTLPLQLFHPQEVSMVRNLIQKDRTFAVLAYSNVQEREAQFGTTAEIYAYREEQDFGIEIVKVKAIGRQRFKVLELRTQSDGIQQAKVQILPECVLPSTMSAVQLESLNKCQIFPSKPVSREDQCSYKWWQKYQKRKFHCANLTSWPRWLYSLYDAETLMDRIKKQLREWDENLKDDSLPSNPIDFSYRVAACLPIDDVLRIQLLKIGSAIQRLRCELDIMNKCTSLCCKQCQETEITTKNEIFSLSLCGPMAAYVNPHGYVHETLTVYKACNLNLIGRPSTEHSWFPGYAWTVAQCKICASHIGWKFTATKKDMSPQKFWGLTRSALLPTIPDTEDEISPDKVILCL
T1 sequence (Q16531 whole entry partner): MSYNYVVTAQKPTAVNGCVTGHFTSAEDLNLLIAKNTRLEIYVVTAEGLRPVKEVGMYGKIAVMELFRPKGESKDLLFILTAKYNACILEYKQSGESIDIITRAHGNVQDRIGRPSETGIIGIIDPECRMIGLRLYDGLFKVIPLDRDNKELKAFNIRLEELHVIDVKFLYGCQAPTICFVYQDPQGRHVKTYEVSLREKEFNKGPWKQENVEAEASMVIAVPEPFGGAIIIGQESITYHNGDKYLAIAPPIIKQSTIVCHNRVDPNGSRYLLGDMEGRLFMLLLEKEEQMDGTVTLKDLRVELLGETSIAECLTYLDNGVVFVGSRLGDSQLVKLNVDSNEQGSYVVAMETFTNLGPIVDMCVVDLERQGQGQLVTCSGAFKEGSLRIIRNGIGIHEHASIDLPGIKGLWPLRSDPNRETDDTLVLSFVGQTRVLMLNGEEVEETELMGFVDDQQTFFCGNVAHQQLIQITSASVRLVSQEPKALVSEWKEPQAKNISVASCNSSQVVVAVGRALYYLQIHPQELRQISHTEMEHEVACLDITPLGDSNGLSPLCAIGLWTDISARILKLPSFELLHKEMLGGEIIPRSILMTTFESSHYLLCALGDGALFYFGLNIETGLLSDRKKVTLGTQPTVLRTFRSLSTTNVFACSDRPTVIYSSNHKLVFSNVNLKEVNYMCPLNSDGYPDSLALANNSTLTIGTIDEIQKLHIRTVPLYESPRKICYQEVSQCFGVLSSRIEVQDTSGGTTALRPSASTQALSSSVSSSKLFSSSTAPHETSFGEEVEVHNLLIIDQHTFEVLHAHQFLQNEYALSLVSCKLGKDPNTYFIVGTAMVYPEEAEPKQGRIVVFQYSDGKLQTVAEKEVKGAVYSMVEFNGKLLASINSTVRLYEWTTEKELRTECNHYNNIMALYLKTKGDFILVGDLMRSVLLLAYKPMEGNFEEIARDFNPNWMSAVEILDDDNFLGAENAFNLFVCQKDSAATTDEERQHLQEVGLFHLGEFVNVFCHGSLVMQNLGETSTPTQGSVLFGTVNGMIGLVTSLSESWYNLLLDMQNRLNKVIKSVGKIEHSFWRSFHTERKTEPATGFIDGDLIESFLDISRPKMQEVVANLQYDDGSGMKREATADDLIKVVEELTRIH

effect on CK1α levels (Western blot, FIG. 1) [1] | effect on CK1α levels (Western blot, FIG. 1) [2] | Tmax [3] | AUC ([3]; Mean ± SD) | AUC(0-t) ([3]; Mean ± SD) | Cmax ([3]; Mean ± SD) | half-life ([3]; Mean ± SD) | SMILES
decreases CK1α levels | no effect on CK1α levels | – | – | – | – | – | O=C1CCC(N2Cc3cc(N4CCN(c5ccccc5)C4=O)ccc3C2=O)C(=O)N1 (centres unmarked) [Compound 101, 3-(1-oxo-5-(2-oxo-3-phenylimidazolidin-1-yl)isoindolin-2-yl)piperidine-2,6-dione]
– | – | 1 h | 5880 ± 1600 ng·h/mL | 5590 ± 1830 ng·h/mL | 1520 ± 262 ng/mL | 152 ± 22.2 min | C[C@@H]1CN(c2ccc3c(c2)CN(C2CCC(=O)NC2=O)C3=O)C(=O)N1c1ccccc1 (stereo partly drawn) [Compound 107, 3-(5-((R)-4-methyl-2-oxo-3-phenylimidazolidin-1-yl)-1-oxoisoindolin-2-yl)piperidine-2,6-dione]
– | – | 1 h | 1860 ± 495 ng·h/mL | 1790 ± 504 ng·h/mL | 717 ± 167 ng/mL | – | C[C@@H]1CN(c2ccc3c(c2)CN(C2CCC(=O)NC2=O)C3=O)C(=O)N1c1ccc(C2CC2)cc1 (stereo partly drawn) [Compound 125, 3-(5-((R)-3-(4-cyclopropylphenyl)-4-methyl-2-oxoimidazolidin-1-yl)-1-oxoisoindolin-2-yl)piperidine-2,6-dione]
